Results: patent US20120225031A1, “SPHINGOSINE-1-PHOSPHATE RECEPTOR AGONISTS IN THE TREATMENT OF DEMYELINATING DISORDERS” (priority 2002, published 2012)

Tests used:
[1] = system: SJL/J mouse model of chronic progressive EAE; assay: SJL/J mouse model of chronic progressive EAE; type: in vivo
Method: A.1 In Vivo: SJL/J Mouse Model of Chronic Progressive EAE
The disease course in this animal model shares some common features with SP- and PR-MS. Immunization: On day 0 female SJL/J mice are immunized (subcutaneous flank injection) with 200 μl inoculum containing 500 μg bovine myelin basic protein (MBP) emulsified in complete Freund's adjuvant (CFA). On day 9 mice are boosted by a second MBP injection and an additional intravenous adjuvant injection consisting of 200 ng B. pertussis toxin. A final Pertussis injection is given on day 11. […] This is followed by a recovery phase starting around day 25, during which time mice remain symptom-free for about 20 days. Subsequently, by days 45-47, approximately 50% of the animals go into the progressive phase of the disease. Therefore, therapeutic treatment with test compounds starts on day 21 when the disease is fully established and continues until day 70, unless stated otherwise. Recombinant mouse interferon β (INFβ Calbiochem/Biosciences) is dissolved in saline and given by intraperitoneal injection 3× per week. Compound (a), e.g. Compound A or B, is diluted in water and given p.o. 5× per week by gavage. Mice in the vehicle control group are MBP-immunized and treated with water.
Each experimental group consists of 10 mice, which are examined daily for clinical EAE symptoms. Disease incidence and the day of EAE onset also are recorded. Clinical grades of EAE are assessed using a scale from 0 to 3. Any disease-related mortality which occurs after starting drug treatment is recorded with a maximum score of 3.

[2] = Acute toxicity (LD50) in monkeys; conditions: monkey, in vivo, po
[3] = system: DA rat model of chronic-protracted EAE; assay: Optic neuritis in the DA rat model of chronic-protracted EAE; type: in vivo; conditions: for disease progression (clinical EAE): 0.3 mg/kg p.o. once a day for 2 weeks, therapeutic treatment from about day 12, compared to vehicle-treated controls; for development of EAE symptoms / disease-related weight loss: suboptimal dose <0.1 mg/kg p.o. combined with a mTOR inhibitor (<1 mg/kg p.o.), therapeutic dosing
Excerpt: A.2 In Vivo: Optic Neuritis in the DA Rat Model of Chronic-Protracted EAE
Ocular pathologic manifestations such as optic neuritis (neuromyelitis optica) are frequent in multiple sclerosis and often precede or accompany plaque formation in the brain white matter. Ocular areas, especially the optic chiasma, also are important targets in demyelinating forms of EAE. In such EAE models, functional disability caused by demyelination of the optic nerve can be assessed by electrophysiological methods, such as visual evoked cortical potentials and electroretinogram, in conjunction with morphological analysis of the ocular tissue.
Immunization: On day 0, female DA rats are immunized by a single intradermal injection at the tail base with 100-200 μl inoculum containing a recombinant encephalitogenic peptide, e.g. myelin oligodendrocyte glycoprotein, or a homogenate of syngeneic central nervous system tissue emulsified in one part CFA (volume:volume). Neurologic symptoms develop by 10 days post-immunization, and clinical grades of EAE are assessed using a scale of 0 to 4. Therapeutic treatment with the test compound starts when the disease is fully established, usually on day 12, and continues for 2 weeks.

[4] = Acute toxicity (LD50) in rats; conditions: rat, in vivo, po
Lewis rat model of EAE = assay: Lewis rat model of EAE, prophylactic treatment regimen; type: in vivo; conditions: combination with a mTOR inhibiter at similar doses, EAE induced by intradermal guinea pig neuroantigen
[5] = 0.6 mg/kg p.o. 5x per week in combination with INFβ (10 000 IU i.p. 3x per week), therapeutic treatment from day 21, days 45-75, compared to vehicle-treated controls

Molecule | disease progression (clinical EAE) [1, 5] | LD50 [2] [mg/kg] | disease progression (clinical EAE) [3] | development of EAE symptoms [3] | disease-related weight loss [3] | LD50 [4] [mg/kg] | disease onset (Lewis rat model of EAE) | disease progression (clinical EAE) ([1]; INFβ alone, 10 000 IU 3x/week i.p., afterwards full EAE response indistinguishable from vehicle-treated controls by day 68 onwards)
CCCCCCCCc1ccc(CCC(N)(CO)CO)cc1.Cl [Compound A, 2-amino-2-[2-(4-octylphenyl)ethyl]propane-1,3-diol] | prevents disease progression for one month | > 10 | prevents disease progression for at least 2 months | curtail development of EAE symptoms | prevent disease-related weight loss | > 10 | prevent disease onset | 
NC(CO)(CO)CCc1ccc(C(=O)CCCCc2ccccc2)cc1 [Compound B, 2-amino-2-{2-[4-(1-oxo-5-phenylpentyl)phenyl]ethyl}propane-1,3-diol] | prevents disease progression for one month |  | prevents disease progression for at least 2 months | curtail development of EAE symptoms | prevent disease-related weight loss |  | prevent disease onset | 
INFβ: Recombinant mouse interferon β (Calbiochem/Biosciences), dissolved in saline, given by intraperitoneal injection (protein, UniProt P01575 22-182, looked up) Interferon beta: INYKQLQLQERTNIRKCQELLEQLNGKINLTYRADFKIPMEMTEKMQKSYTAFAIQEMLQNVFLVFRNNFSSTGWNETIVVRLLDELHQQTVFLKTVLEEKQEERLTWEMSSTALHLKSYYWRVQRYLKLMKYNSYAWMVVRAEIFRNFLIIRRLTRNFQN |  |  |  |  |  |  |  | only marginally inhibits disease progression for about 1 week
